This data set can be described thus: in vitro. To be noted: human, hela cells.

As a reminder, the viability is a read-out of living cells in per cent, often relative to untreated cells. Take `O=C1NC(=O)C2(CCN(Cc3ccccc3)CC2)N1` [CBK005078]: where the note is “% viability”, the viability at 28.5 h, 10 µM stood at 86.8%.

Regarding `CCn1c(COc2c(C)cccc2C)nnc1SCC(=O)N1c2ccccc2Sc2ccccc21` [CBK268103], the viability at 28.5 h, 10 µM (% viability) came to 96.4%.

`O=C(CSc1ccc2ccccc2c1)Nc1ccc(Cl)c(C(=O)O)c1` [CBK268239]: the viability at 28.5 h, 10 µM (% viability) was determined as 103%.

For `O=C1NC(c2cccnc2)Nc2sc3c(c21)CCCC3` (stereo not drawn) [CBK072377], the viability at 28.5 h, 10 µM (% viability) worked out at 103%.

Consider `Cc1cc(N2CCOC3(CCN(C(=O)c4ccc5ccccc5c4)CC3)C2)nc(N)n1` [CBK161125A], for which, under “% viability”, the viability at 28.5 h, 10 µM stood at 93.2%.

Turning to `CC(=O)c1cnc2cc(-c3ccc(Cl)cc3)nn2c1C` [CBK051484], where the note is “% viability”, the viability at 28.5 h, 10 µM was determined as 107%.

Turning to `O=C(c1cnccn1)N1C[C@@H]2OCC(=O)N(CC3CC3)[C@@H]2C1` [CBK289681], the viability at 28.5 h, 10 µM (% viability) worked out at 91.3%.

In the case of `CCc1ccc2oc(-c3ccc(NC(=O)COc4ccc(Cl)cc4Cl)cc3O)nc2c1` [CBK263424], under “% viability”, the viability at 28.5 h, 10 µM came out at 104%.

Consider `CNC(=O)CN1CCN(c2cc(C#N)ccc2C(F)(F)F)CC1=O` [CBK306441], for which the viability at 28.5 h, 10 µM (% viability) stood at 93.6%.

As to `CC1(C)CC(NC(=O)CN2CCCCC2)CC(C)(C)N1` [CBK261956], the viability at 28.5 h, 10 µM (% viability) was found to be 92.4%.

Turning to `COc1ccccc1CCNCc1ccccc1Br` [CBK015149], for the setting “% viability, bulk resorufin, single well”, the viability at 28.5 h, 10 µM worked out at 87%.

For the compound `Cc1csc2c(C3CCCN(C(=O)c4ccnn4C)C3)nc(C)n12` (stereo not drawn) [CBK285215], for the setting “% viability”, the viability at 28.5 h, 10 µM is 96.9%.

On to `O=C1N(CN2CCN(C(c3ccccc3)c3ccccc3)CC2)c2ccccc2C12OCCCO2` [CBK265538], for which the viability at 28.5 h, 10 µM (% viability) is 85.6%.

Take `CCc1nn(CC(=O)N(CC)CC)c(=O)c2cc3occc3n12` [CBK283656]: the viability at 28.5 h, 10 µM (% viability) was 91%.

Take `O=C(Nc1ccncc1)c1cc2cc(Cl)ccc2[nH]1` [CBK107340]: the viability at 28.5 h, 10 µM (% viability) was 95%.

Take `CC(C)Oc1ccc(C2CC(=O)N(c3cccc(C(=O)O)c3)C2=O)cc1` (stereo not drawn) [CBK291181]: the viability at 28.5 h, 10 µM (% viability) was 89.8%.

For the compound `O=C(c1cc2ccccc2[nH]1)N1CCN(Cc2ccccc2)CC1` [CBK200172], for the setting “% viability”, the viability at 28.5 h, 10 µM was found to be 118%.

On to `COc1cccc(Cn2c(=O)n(C)c3ncccc32)c1` [CBK282391], for which the viability at 28.5 h, 10 µM (% viability) worked out at 81.1%.

Consider `Cc1oc(CSc2nnc(NCc3ccc(F)cc3)s2)cc1C(=O)O` [CBK296629], for which the viability at 28.5 h, 10 µM (% viability) came out at 91.6%.

For `CSc1nc2ccc(NS(=O)(=O)c3ccc(Cl)c(C(=O)O)c3)cc2s1` [CBK297541], the viability at 28.5 h, 10 µM (% viability) worked out at 82.6%.

Regarding `CCCc1c(OCCCCc2nnn[nH]2)ccc(C(C)=O)c1O` [CBK007468], the viability at 28.5 h, 10 µM (% viability) is 90.4%.

`COc1ccc(C)cc1N(C(=O)c1ccccn1)c1nc2ccccc2s1` [CBK297944]: the viability at 28.5 h, 10 µM (% viability) was 97.7%.

Take `O=C(c1cccc2ncccc12)N1CCN(CC2CCOC2)CC1` (stereo not drawn) [CBK305140]: the viability at 28.5 h, 10 µM (% viability) amounted to 94.3%.

As to `CCCn1nc(C)c(-c2cncn2CC(C)n2nc(C)cc2C)c1C` (stereo not drawn) [CBK281793], the viability at 28.5 h, 10 µM (% viability) was 103%.

With `O=C1COc2ccccc2C/C=C/CC2(CCCNC2)CN1` (stereo not drawn) [CBK292029], the viability at 28.5 h, 10 µM (% viability) was found to be 91.5%.

Consider `CC(C)(C)OC(=O)N1CCN(c2cncc(NCc3ccccc3)n2)CC1` [CBK000154], for which, for the setting “% viability”, the viability at 28.5 h, 10 µM stood at 112%.

Turning to `COc1cccc(Nc2[nH]nnc2C(=O)Nc2cccc(C)c2C)c1` [CBK288028], under “% viability”, the viability at 28.5 h, 10 µM was found to be 102%.

Regarding `CC(=O)Nc1ccc(-c2cccc(COC3CCN(C(=O)Cc4ccc(Cl)c(Cl)c4)CC3)c2)cc1` [CBK149487], the viability at 28.5 h, 10 µM (% viability) was determined as 109%.

In the case of `CN1CCN(C(=O)COc2ccc(S(=O)(=O)Nc3ccc(Cl)cc3)cc2)CC1` [CBK268248], the viability at 28.5 h, 10 µM (% viability) amounted to 102%.

In the case of `Cc1ccc(-c2nnc3ccc(SCC(=O)NC4CCCC4)nn23)cc1` [CBK287523], the viability at 28.5 h, 10 µM (% viability) turned out to be 88.8%.

On to `COC(=O)c1sccc1N1C(=O)CSCC1=O` [CBK021934], for which, where the note is “% viability”, the viability at 28.5 h, 10 µM was 103%.

Consider `O=C(N[C@H]1CC[C@H](O)CC1)C1(Cc2cc(-c3ccc(F)cc3F)no2)CCOCC1` [CBK286352], for which, where the note is “% viability”, the viability at 28.5 h, 10 µM came out at 94.9%.

Take `O=C(CCN1CCCCC1)NCC1OCCc2ccccc21` (stereo not drawn) [CBK013619]: the viability at 28.5 h, 10 µM (% viability) came out at 97%.

For `CC(=O)N1CCc2sccc2C1c1ccccc1NC(=O)c1ccco1` (stereo not drawn) [CBK286436], for the setting “% viability”, the viability at 28.5 h, 10 µM was 98.1%.

`COc1ccc(-c2noc([C@@H]3Cc4[nH]cnc4CN3C(=O)Nc3ccc(C)cc3)n2)cc1` [CBK288968]: the viability at 28.5 h, 10 µM (% viability) was 92.9%.

Regarding `Oc1ccc(C2N(O)C3CCCCC3N2O)cc1` (stereo not drawn) [CBK261715], the viability at 28.5 h, 10 µM (% viability) stood at 92.8%.

On to `Cc1c(C(N)=O)sc(NC(=O)c2cccnc2)c1C#N` [CBK268163], for which the viability at 28.5 h, 10 µM (% viability) amounted to 105%.

Regarding `COc1ccc(C(=O)N2CCC3(CCN(Cc4ccc(Cl)c(Cl)c4)C3)C2)cc1OC` (stereo not drawn) [CBK132150], the viability at 28.5 h, 10 µM (% viability) is 97.3%.

On to `CC1CCCCC1NC(=O)c1ncoc1-c1cccs1` (stereo not drawn) [CBK283973], for which the viability at 28.5 h, 10 µM (% viability) was 84.8%.

With `Cc1nc(-c2ccc(NC(=O)CC(C)n3cccn3)cc2)cs1` (stereo not drawn) [CBK281403], the viability at 28.5 h, 10 µM (% viability) is 98.4%.

For the compound `CCCC/C=C/c1cncc(Nc2ccccc2)n1` [CBK037942], where the note is “% viability”, the viability at 28.5 h, 10 µM was determined as 103%.

For `COc1ccc(C(=O)Oc2ccc(C(c3c(C)n[nH]c3O)c3c(C)n[nH]c3O)cc2)cc1` [CBK264740], the viability at 28.5 h, 10 µM was 112%.

On to `Cc1ccc(/C=C2\SC(=S)N(CCCC(=O)N3CCC(Cc4ccccc4)CC3)C2=O)cc1` [CBK264356], for which, under “% viability”, the viability at 28.5 h, 10 µM came out at 101%.

`COc1ccc(C(NC(=O)N(C(C)C)C(C)C)c2nccn2C)cc1` (stereo not drawn) [CBK283568]: the viability at 28.5 h, 10 µM (% viability) amounted to 111%.

`NS(=O)(=O)c1ccc(CCNC2=CC(=O)CC(c3ccco3)C2)cc1` (stereo not drawn) [CBK265852]: where the note is “% viability”, the viability at 28.5 h, 10 µM came out at 97%.

With `CN(C)C(=O)CCNC(=O)c1ccc2c(c1)nc(N1CC[C@H](O)C1)n2C` [CBK306671], the viability at 28.5 h, 10 µM (% viability) is 92.4%.

On to `CC1=CC(C)C(CN(CCC[N+](C)(C)C)C(=O)Nc2ccccc2)C(C)C1` (stereo not drawn) [CBK262507I], for which the viability at 28.5 h, 10 µM (% viability) worked out at 84.3%.

As to `Cc1[nH]c2ccccc2c1[C@H]1CC[C@@H](NC(=O)c2ccnn2C)C1` [CBK284761], where the note is “% viability”, the viability at 28.5 h, 10 µM was 99.8%.

In the case of `O=C(NCCN1CCOCC1)c1cnn2c(-c3ccccc3)cc(-c3ccccc3)nc12` [CBK263062], the viability at 28.5 h, 10 µM (% viability) was 94.5%.

Take `CCN1C(=O)COC[C@@H]1[C@H](O)c1ccc(NC(=O)COc2ccccc2)cc1` [CBK289685]: the viability at 28.5 h, 10 µM (% viability) is 96.6%.

On to `Cc1ccc(S(=O)(=O)Nc2cccc3ccccc23)c([N+](=O)[O-])c1` [CBK267381], for which the viability at 28.5 h, 10 µM (% viability) was 71.9%.

With `Cc1c(C(=O)N2CCCCC2C(N)=O)nnn1Cc1ccc(F)cc1F` (stereo not drawn) [CBK304425], the viability at 28.5 h, 10 µM (% viability) worked out at 93.7%.

Turning to `COc1ccccc1-c1cnccc1-n1ccnc1` [CBK177153], for the setting “% viability”, the viability at 28.5 h, 10 µM worked out at 100%.

Consider `N#Cc1c(NC(=O)CSc2nnc3c(n2)[nH]c2ccccc23)sc2c1CCCC2` [CBK262417], for which the viability at 28.5 h, 10 µM (% viability) worked out at 93%.

Consider `Cc1ccc(C2N(Cc3ccccc3)CCN2Cc2ccccc2)o1` [CBK260883], for which the viability at 28.5 h, 10 µM (% viability) turned out to be 98.3%.

With `Cc1cc(-c2nc3ncccc3o2)ccc1NC(=S)NC(=O)c1cc2ccccc2o1` [CBK268922], for the setting “% viability”, the viability at 28.5 h, 10 µM was found to be 83.1%.

As to `O=C1Cc2ccccc2C2(CCN(C(=O)Nc3c(F)cccc3F)CC2)N1` [CBK047296], the viability at 28.5 h, 10 µM (% viability) turned out to be 89%.
